In brackets after ≈: the same amount, converted by molar mass.
Key:
Mu-type opioid receptor [1] = target: T1, Mu-type opioid receptor (Homo sapiens, UniProt P35372); assay: Agonist activity at human MOR expressed in CHOK1 cells assessed as […] of cAMP accumulation incubated for 45 mins by HTRF assay; format: functional, cell-based
Mu-type opioid receptor [2] = target: T1, Mu-type opioid receptor; assay: Agonist activity at human MOR expressed in CHOK1 cells assessed as […] of cAMP accumulation at 1 uM incubated for 45 mins by HTRF assay; format: functional, cell-based
[3] = target: T2, Sigma non-opioid intracellular receptor 1 (Homo sapiens, UniProt Q99720); assay: Displacement of [3H]-(+)-pentazocine from human sigma-1 receptor expressed in HEK293 membranes incubated for 120 mins by liquid scintillation counting method
Mu-type opioid receptor [4] = target: T1, Mu-type opioid receptor; assay: biochemical
Description: Displacement of [3H]-DAMGO from human MOR expressed in CHOK1 cell membranes incubated for 60 mins by liquid scintillation counting method

Mu-type opioid receptor [5] = target: T1, Mu-type opioid receptor; assay: Displacement of [3H]-DAMGO from human MOR expressed in CHOK1 cell membranes at 1 uM incubated for 60 mins by liquid scintillation counting method
[6] = target: T3, Alpha-1A adrenergic receptor (Homo sapiens) (UniProt P35348); assay: Displacement of [3H]-prazosin from human alpha1A adrenoreceptor expressed in enriched membranes at 1 uM incubated for 90 mins by liquid scintillation counting method relative to control; format: cell membranes
T3 sequence (whole entry): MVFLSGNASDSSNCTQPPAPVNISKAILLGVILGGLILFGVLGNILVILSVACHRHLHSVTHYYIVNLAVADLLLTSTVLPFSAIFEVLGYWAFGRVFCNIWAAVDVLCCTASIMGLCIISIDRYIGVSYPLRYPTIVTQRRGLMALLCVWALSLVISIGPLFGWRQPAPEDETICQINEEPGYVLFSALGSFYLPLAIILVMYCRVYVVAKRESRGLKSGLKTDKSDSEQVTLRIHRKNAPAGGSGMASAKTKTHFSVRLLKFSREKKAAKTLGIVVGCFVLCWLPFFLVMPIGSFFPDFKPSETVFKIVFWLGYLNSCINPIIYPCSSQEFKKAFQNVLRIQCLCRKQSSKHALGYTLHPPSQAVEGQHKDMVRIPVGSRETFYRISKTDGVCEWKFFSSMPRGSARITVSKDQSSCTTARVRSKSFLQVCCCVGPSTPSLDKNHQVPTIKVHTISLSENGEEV

Mu-type opioid receptor [7] = target: T1, Mu-type opioid receptor; assay: Agonist activity at human MOR expressed in CHOK1 cells assessed as […] of cAMP accumulation incubated for 45 mins by HTRF assay relative to DAMGO; format: functional, cell-based
hERG (KCNH2) = hERG (KCNH2) (Homo sapiens, UniProt Q12809); assay: Inhibition of human ERG expressed in CHOK1 cells assessed as reduction in channel current at 10 uM at -80 mV holding potential by whole cell patch clamp assay relative to control; format: cell-based; settings: CHO-K1 cells expressing human ERG
[8] = target: Voltage-gated inwardly rectifying potassium channel KCNH2 (Homo sapiens, UniProt Q12809)
Description: Inhibition of human ERG expressed in CHOK1 cells assessed as reduction in channel current at -80 mV holding potential by whole cell patch clamp assay

[9] = target: T2, Sigma non-opioid intracellular receptor 1; assay: Displacement of [3H]-(+)-pentazocine from human sigma-1 receptor expressed in HEK293 membranes at 1 uM incubated for 120 mins by liquid scintillation counting method relative to control
[10] = target: T4, Alpha-1A adrenergic receptor (Homo sapiens, UniProt P35348); assay: Displacement of [3H]-prazosin from human alpha1A adrenoreceptor expressed in enriched membranes incubated for 90 mins by liquid scintillation counting method; format: cell membranes
T4 sequence (P35348 whole entry): T3 sequence (whole entry)

[11] = target: 5-hydroxytryptamine receptor 2B (Homo sapiens, UniProt P41595); assay: Inhibition of 5HT2B receptor (unknown origin)
[12] = Thermodynamic solubility in pH 2 buffer; format: physicochemical; settings: read-out: Therm_solubility
[13] = Thermodynamic solubility in pH 7.4 buffer; format: physicochemical; settings: read-out: Therm_solubility
[14] = Basicity constant, pKa of the compound; format: physicochemical
[15] = Lipophilicity, log Pof the compound; format: physicochemical; settings: octanol/water
[16] = Clearance in human liver microsomes; format: ADME, Microsome; settings: read-out: CLH
Cytochrome P450 1A2 = target: T5, Cytochrome P450 1A2 (Homo sapiens, UniProt P05177); assay: Inhibition of recombinant human CYP1A2 using fluorometric substrate; format: ADME; settings: recombinant enzyme
T5 sequence (P05177 whole entry): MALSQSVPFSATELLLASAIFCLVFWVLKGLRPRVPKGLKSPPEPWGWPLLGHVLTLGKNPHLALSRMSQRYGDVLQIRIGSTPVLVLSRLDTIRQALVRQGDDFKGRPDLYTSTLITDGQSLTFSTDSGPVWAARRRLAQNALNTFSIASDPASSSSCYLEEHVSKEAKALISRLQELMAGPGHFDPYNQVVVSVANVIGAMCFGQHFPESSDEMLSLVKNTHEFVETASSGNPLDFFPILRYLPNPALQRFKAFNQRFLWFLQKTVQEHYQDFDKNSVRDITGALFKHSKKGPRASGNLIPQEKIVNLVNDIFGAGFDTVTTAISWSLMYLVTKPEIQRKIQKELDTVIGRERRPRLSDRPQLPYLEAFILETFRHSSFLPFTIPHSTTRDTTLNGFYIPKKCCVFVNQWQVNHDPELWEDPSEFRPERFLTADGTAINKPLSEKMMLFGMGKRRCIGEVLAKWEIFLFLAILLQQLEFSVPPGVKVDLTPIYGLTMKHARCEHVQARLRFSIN

Cytochrome P450 2C9 = Cytochrome P450 2C9 (Homo sapiens, UniProt P11712); assay: Inhibition of recombinant human CYP2C9 using fluorometric substrate; format: ADME; settings: recombinant enzyme
Cytochrome P450 2C19 = Cytochrome P450 2C19 (Homo sapiens, UniProt P33261); assay: Inhibition of recombinant human CYP2C19 using fluorometric substrate; format: ADME; settings: recombinant enzyme
Cytochrome P450 2D6 = Cytochrome P450 2D6 (Homo sapiens, UniProt P10635); assay: Inhibition of recombinant human CYP2D6 using fluorometric substrate; format: ADME; settings: recombinant enzyme
Cytochrome P450 2E1 = Cytochrome P450 2E1 (Homo sapiens, UniProt P05181); assay: Inhibition of recombinant human CYP2E1 using fluorometric substrate; format: ADME; settings: recombinant enzyme
Cytochrome P450 3A4 = Cytochrome P450 3A4 (Homo sapiens, UniProt P08684); assay: Inhibition of recombinant human CYP3A4 using fluorometric substrate; format: ADME; settings: recombinant enzyme
Mus musculus [17] = assay: Antinociceptive activity in ip dosed mouse assessed as reduction in mechanical nociception measured after 30 mins post dose by paw pressure pain test; format: functional; settings: 0.5 h
Mus musculus [18] = assay: Induction of constipation in mouse assessed as effect on intestinal transit at 20 mg/kg, ip dosed 30 mins before charcoal suspension dosing and measured after 30 mins; format: organism-based; settings: in vivo, 0.5 h
Mu-type opioid receptor [19] = target: T1, Mu-type opioid receptor; assay: Displacement of [3H]-DAMGO from human MOR expressed in CHOK1 cell membranes at 10 uM incubated for 60 mins by liquid scintillation counting method
Mu-type opioid receptor [20] = target: T1, Mu-type opioid receptor; assay: Agonist activity at human MOR expressed in CHOK1 cells assessed as […] of cAMP accumulation at 10 uM incubated for 45 mins by HTRF assay; format: functional, cell-based
Mus musculus [21] = assay: Antinociceptive activity in orally dosed mouse assessed as reduction in mechanical nociception measured after 30 mins post dose by paw pressure pain test; format: functional; settings: po, 0.5 h
Mus musculus [22] = assay: Induction of constipation in mouse assessed as effect on intestinal transit at 10 mg/kg, po dosed 30 mins before charcoal suspension dosing and measured after 30 mins; format: organism-based; settings: in vivo, 0.5 h

T2 sequence (Q99720 whole entry): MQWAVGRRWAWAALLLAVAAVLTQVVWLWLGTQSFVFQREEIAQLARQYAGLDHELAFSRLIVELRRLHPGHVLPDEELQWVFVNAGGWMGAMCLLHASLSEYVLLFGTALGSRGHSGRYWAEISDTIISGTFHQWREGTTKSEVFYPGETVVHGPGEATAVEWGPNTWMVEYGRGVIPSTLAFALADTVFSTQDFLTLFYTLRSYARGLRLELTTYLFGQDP
T1 sequence (P35372 whole entry): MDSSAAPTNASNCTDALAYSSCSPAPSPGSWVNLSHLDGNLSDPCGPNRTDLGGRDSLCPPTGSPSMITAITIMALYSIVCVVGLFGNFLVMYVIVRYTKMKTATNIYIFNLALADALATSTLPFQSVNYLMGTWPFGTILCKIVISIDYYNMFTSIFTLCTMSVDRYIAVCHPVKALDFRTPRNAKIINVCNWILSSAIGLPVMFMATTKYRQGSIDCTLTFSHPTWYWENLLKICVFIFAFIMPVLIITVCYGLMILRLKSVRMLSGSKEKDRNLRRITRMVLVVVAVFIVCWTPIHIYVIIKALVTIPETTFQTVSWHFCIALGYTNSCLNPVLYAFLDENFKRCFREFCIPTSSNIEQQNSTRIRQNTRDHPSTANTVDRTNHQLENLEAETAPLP
Sequence of hERG (KCNH2) (Q12809 whole entry): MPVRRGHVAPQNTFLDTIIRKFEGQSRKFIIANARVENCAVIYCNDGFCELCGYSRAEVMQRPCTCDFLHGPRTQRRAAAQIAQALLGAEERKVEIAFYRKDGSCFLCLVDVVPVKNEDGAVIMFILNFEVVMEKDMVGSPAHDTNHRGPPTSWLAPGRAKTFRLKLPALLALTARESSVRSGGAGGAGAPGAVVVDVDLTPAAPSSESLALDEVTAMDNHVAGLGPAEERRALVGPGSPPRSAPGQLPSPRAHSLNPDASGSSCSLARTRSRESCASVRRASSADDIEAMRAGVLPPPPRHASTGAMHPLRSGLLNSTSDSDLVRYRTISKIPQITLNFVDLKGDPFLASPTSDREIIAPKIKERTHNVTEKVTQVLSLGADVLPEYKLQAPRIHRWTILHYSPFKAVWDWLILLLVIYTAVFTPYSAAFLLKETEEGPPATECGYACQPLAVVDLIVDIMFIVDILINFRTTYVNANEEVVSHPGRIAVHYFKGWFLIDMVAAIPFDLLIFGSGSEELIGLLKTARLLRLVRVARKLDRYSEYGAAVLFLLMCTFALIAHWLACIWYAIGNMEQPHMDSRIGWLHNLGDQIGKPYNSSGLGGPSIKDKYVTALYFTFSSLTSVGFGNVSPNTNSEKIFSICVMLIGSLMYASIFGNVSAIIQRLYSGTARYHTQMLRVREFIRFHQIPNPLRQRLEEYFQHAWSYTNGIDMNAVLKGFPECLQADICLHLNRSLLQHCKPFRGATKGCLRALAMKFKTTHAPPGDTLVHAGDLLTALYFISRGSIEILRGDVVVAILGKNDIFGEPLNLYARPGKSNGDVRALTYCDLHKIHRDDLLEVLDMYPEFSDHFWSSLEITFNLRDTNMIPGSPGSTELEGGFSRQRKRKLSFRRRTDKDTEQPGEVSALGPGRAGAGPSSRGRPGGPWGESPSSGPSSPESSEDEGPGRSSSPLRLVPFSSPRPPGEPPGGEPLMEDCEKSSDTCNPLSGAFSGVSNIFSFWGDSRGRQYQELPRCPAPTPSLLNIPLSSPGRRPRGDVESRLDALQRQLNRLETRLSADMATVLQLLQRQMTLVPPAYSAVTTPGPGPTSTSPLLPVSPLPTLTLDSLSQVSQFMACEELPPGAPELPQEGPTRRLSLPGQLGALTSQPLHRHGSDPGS
Sequence of Voltage-gated inwardly rectifying potassium channel KCNH2 (Q12809 whole entry): as above
Sequence of Cytochrome P450 3A4 (P08684 whole entry): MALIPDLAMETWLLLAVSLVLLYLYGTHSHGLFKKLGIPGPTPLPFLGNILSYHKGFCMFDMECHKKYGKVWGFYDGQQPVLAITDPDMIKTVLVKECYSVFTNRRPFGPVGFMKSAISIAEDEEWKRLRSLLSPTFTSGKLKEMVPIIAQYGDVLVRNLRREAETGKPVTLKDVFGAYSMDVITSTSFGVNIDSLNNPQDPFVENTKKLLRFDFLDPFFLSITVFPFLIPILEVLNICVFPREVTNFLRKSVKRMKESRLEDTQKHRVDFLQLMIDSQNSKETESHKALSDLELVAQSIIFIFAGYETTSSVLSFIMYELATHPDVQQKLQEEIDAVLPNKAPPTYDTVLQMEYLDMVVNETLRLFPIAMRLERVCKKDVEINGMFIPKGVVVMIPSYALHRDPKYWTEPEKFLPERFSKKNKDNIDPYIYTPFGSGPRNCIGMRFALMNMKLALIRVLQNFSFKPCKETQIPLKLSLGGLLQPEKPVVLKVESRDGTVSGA
Sequence of Cytochrome P450 2C9 (P11712 whole entry): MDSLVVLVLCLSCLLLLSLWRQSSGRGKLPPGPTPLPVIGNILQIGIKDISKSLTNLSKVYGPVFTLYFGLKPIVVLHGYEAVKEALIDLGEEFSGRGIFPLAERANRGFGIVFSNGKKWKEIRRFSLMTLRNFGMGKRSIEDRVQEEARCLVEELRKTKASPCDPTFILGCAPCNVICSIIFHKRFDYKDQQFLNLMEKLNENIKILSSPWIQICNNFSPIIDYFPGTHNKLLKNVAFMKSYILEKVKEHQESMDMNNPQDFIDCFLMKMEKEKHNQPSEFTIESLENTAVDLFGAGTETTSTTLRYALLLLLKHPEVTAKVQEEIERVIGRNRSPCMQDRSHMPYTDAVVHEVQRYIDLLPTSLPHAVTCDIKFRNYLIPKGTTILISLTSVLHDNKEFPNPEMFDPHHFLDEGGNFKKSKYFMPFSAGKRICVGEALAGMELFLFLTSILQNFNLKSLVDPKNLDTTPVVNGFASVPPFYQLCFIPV
Sequence of 5-hydroxytryptamine receptor 2B (P41595 whole entry): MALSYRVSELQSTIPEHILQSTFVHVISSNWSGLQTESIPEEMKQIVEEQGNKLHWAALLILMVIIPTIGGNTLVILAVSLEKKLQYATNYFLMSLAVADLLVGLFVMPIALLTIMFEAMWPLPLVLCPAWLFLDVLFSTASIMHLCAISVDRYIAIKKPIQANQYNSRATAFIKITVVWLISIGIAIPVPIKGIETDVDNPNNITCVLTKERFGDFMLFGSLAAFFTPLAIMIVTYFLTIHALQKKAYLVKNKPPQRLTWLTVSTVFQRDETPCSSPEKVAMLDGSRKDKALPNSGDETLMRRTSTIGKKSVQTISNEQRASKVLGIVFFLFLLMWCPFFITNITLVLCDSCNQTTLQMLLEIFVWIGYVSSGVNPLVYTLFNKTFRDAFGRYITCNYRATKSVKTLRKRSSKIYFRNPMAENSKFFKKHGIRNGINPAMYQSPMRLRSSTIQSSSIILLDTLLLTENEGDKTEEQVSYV
Sequence of Cytochrome P450 2D6 (P10635 whole entry): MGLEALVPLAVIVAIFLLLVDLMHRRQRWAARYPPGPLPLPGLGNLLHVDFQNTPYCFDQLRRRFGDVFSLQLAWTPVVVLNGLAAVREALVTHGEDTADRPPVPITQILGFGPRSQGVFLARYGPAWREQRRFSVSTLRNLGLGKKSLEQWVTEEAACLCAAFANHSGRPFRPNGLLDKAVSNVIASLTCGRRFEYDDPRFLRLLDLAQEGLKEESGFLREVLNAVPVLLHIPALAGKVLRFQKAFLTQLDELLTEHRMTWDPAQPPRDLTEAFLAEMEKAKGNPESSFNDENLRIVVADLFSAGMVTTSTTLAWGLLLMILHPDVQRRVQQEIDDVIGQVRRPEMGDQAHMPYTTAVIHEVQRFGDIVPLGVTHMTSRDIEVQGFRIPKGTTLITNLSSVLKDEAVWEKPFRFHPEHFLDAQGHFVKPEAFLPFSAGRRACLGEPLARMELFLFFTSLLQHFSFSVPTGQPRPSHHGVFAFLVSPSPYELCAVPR

SMILES	EC50 (Mu-type opioid receptor [1]) [µM]	Activity (Mu-type opioid receptor [2]) [%]	Ki [3] [µM]	Ki (Mu-type opioid receptor [4]) [µM]	inhibition [6] [%]	IC50 [8] [µM]	other results
CN(C)C(=O)CC1OC2(CCN(CCc3ccccc3)CC2)CN(c2ccccc2)C1=O (stereo not drawn)	> 1	< 50	0.275	0.636			
CC1OC2(CCN(CCc3ccccc3)CC2)CN(c2ccncc2)C1=O (stereo not drawn)	> 1	< 50	0.088	> 1	68		inhibition (Mu-type opioid receptor [5]): < 50%
CC1OC2(CCN(CCc3ccccc3)CC2)CN(c2ccc(C(F)(F)F)nc2)C1=O (stereo not drawn)	> 1	< 50	0.009	> 1	66		inhibition (Mu-type opioid receptor [5]): < 50%
CC(=O)Nc1cccc(CCN2CCC3(CC2)CN(c2ccccc2)C(=O)[C@@H](C)O3)c1	0.069		0.205	0.046	90	> 10	Emax (Mu-type opioid receptor [7]): 95%; inhibition at 10 µM (hERG (KCNH2)): < 50%
CC1OC2(CCN(CCc3ccccc3)CC2)CN(c2ccc(O)cc2)C1=O (stereo not drawn)	> 1	< 50	0.122	0.606	68		
CC(=O)Nc1ccc(CCN2CCC3(CC2)CN(c2ccccc2)C(=O)C(C)O3)cc1 (stereo not drawn)	> 1	< 50	0.237	> 1	60		inhibition (Mu-type opioid receptor [5]): < 50%
CC(=O)Nc1cccc(CCN2CCC3(CC2)CN(c2ccccc2)C(=O)C(C)O3)c1 (racemic)	0.343		0.147	0.144	88	> 10	Emax (Mu-type opioid receptor [7]): 96%; inhibition at 10 µM (hERG (KCNH2)): < 50%
O=C(O)CC1OC2(CCN(CCc3ccccc3)CC2)CN(c2ccccc2)C1=O (stereo not drawn)	> 1	< 50	> 1	> 1			inhibition (Mu-type opioid receptor [5]): < 50%; inhibition [9]: < 50%
COc1ccc(N2CC3(CCN(CCc4ccccc4)CC3)OC(C)C2=O)cc1 (stereo not drawn)	> 1	< 50	0.014	> 1	69		inhibition (Mu-type opioid receptor [5]): < 50%
O=C1N(c2cccnc2C(F)(F)F)CC2(CCN(CCc3ccccc3F)CC2)OC12CC2						> 10	inhibition at 10 µM (hERG (KCNH2)): < 50%; Ki [10]: 0.47 µM; Ki [11]: 0.754 µM; solubility thermodynamic [12]: 2.63 mg/mL (≈ 5.67 mM); solubility thermodynamic [13]: 0.16 mg/mL (≈ 0.345 mM); pKa [14]: 7.82; logP [15]: 3.41; microsomal CLint [16]: 20 µL/min/mg; inhibition (INH) (Cytochrome P450 1A2): < 50%; inhibition (INH) (Cytochrome P450 2C9): < 50%; inhibition (INH) (Cytochrome P450 2C19): < 50%; inhibition (INH) (Cytochrome P450 2D6): < 50%; inhibition (INH) (Cytochrome P450 2E1): < 50%; inhibition (INH) (Cytochrome P450 3A4): < 50%; ED50 (Mus musculus [17]): 15 mg/kg; Activity (Mus musculus [18]): Non-Toxic
O=C1OC2(CCN(CCc3ccccc3)CC2)CN1c1ccccc1	> 1	< 50	0.055	0.401			
CC1OC2(CCN(CCc3ccccc3)CC2)CN(c2ccccc2O)C1=O (stereo not drawn)	> 1	< 50	0.051	0.535	66		
O=C1COC2(CCN(CCc3ccccc3)C2)CN1c1ccccc1 (stereo not drawn)	> 1	< 50	0.053	> 1			inhibition (Mu-type opioid receptor [5]): < 50%
CC1OC2(CCN(CCc3ccccc3)CC2)CN(c2cccc(O)c2)C1=O (stereo not drawn)	> 1	< 50	0.055	0.727	67		
CC1OC2(CCN(CCc3cccc(F)c3)CC2)CN(c2ccccc2)C1=O (stereo not drawn)	0.013		0.008	0.01	74	0.6	Emax (Mu-type opioid receptor [7]): 94%
O=C(CCCN1CCC(O)(c2ccc(Cl)cc2)CC1)c1ccc(F)cc1							inhibition (Mu-type opioid receptor [19]): < 50%; Activity (Mu-type opioid receptor [20]): < 50%
CC1OC2(CCN(CCc3ccccc3)CC2)CN(c2cnccc2C(F)(F)F)C1=O (stereo not drawn)	0.025		0.063	0.028	58	3.3	Emax (Mu-type opioid receptor [7]): 96%
CC1OC2(CCN(CCc3ccccc3)CC2)CN(c2cncc(F)c2)C1=O (stereo not drawn)	0.23		0.003	0.204	85	1.1	Emax (Mu-type opioid receptor [7]): 87%
COc1ccc2c3c1O[C@H]1C(=O)CC[C@@]4(O)[C@@H](C2)N(C)CC[C@]314 [OXYCODONE]							ED50 (Mus musculus [21]): 4.3 mg/kg; Activity (Mus musculus [22]): Toxic
Cc1cc(OCCN2CCOCC2)nn1-c1ccc2ccccc2c1							Activity (Mu-type opioid receptor [20]): < 50%
CC1OC2(CCN(CCc3ccccc3)CC2)CN(c2ccccc2F)C1=O (stereo not drawn)	0.004		0.011	0.008	68	1.2	Emax (Mu-type opioid receptor [7]): 94%

— ChEMBL document CHEMBL4354824, “4-Aryl-1-oxa-4,9-diazaspiro[5.5]undecane Derivatives as Dual μ-Opioid Receptor Agonists and σ1 Receptor Antagonists for the Treatment of Pain” (J Med Chem, 2020)
